Test results published in PMC6443832, “Designing and Characterization of a Novel Delivery System for Improved Cellular Uptake by Brain Using Dendronised Apo-E-Derived Peptide” (Frontiers in Bioengineering and Biotechnology, 2019).

Tests used:
bEnd.3 cells [1] = test: Cellular uptake by laser scanning confocal microscopy (LSCM); conditions: FITC-labeled; confluent bEnd.3 cells; 1 h treatment; formalin-fixed; LSCM 488 laser; qualitative, versus untreated control cells
Description: The bEnd.3 cells were treated at confluence with FITC-labeled products dissolved in DMEM and incubated for 1 h (the appropriate incubation time for dendrons with this type of cell line). The cells were then fixed with 3.7% (v/v) formalin, and analyzed by LSCM (Leica TCS SP5, UK), using a 488-visible laser source.

bEnd.3 cells [2] = test: LDH release cytotoxicity assay; conditions: confluent bEnd.3 cells; concentrations up to 400 μM; 24 and 48 h; absorbance 492 nm; relative to complete lysis control (100% lysis); mean of n = 6
Description: The bEnd.3 cells were cultured, according to ATCC-product sheet instruction, in DMEM high glucose medium with L-pyruvate, containing 10 % (v/v) fetal bovine serum and 1% (v/v) of 500 U/ml Penicillin/Streptomycin (Gibco, Germany). Cells were seeded at a density of 5 × 10^4 cells per cm^2 in 24-well plates then incubated at 37°C and 5% CO2 and the culture media was replaced every 3 days.
Experiments were performed when cells reached confluence. A range of concentrations (25, 50, 100, 150, 200, 300, and 400 μM) of each AMT-competent G0-, G1-dendron, and RMT-competent AEP-dendron were used in each experiment.
Lactate dehydrogenase (LDH) was measured using Promega CytoTox96® non-radioactive cytotoxicity assay kit (UK) after 24 and 48 h incubation. Absorbance was read spectrophotometrically at 492 nm and converted to a percentage of the total LDH released from the positive control (cells subjected to complete lysis) for 6 replicates.

bEnd.3 cells [3] = test: Cellular uptake by flow cytometry; conditions: FITC-labeled carrier in DMEM; confluent bEnd.3 cells; 1 h incubation; flow cytometry FL1-H channel; in comparison to negative control (untreated cells)
Description: The bEnd.3 cells were cultured and treated at confluence with 100 μL FITC-labeled products dissolved in DMEM for 1 h. The cells were washed with phosphate buffer solution twice and trypsinised and then harvested to be analyzed using BD C6 sampler flow cytometer (BD Accuri C6, Bioscience, UK). Samples of cells without treatment were also included as a control, and the analysis was carried out through the FL1-H channel for FITC detection.

| Compound | cellular uptake (green fluorescence inside the cells) (bEnd.3 cells [1]) | cell membrane lysis (LDH release) as % of positive control (bEnd.3 cells [2]) [%] | cellular uptake (bEnd.3 cells [3]) [%] |
| --- | --- | --- | --- |
| O=C1OC2(c3ccc(O)cc3Oc3cc(O)ccc32)c2ccc(N=C=S)cc21 [FITC, fluorescein-5-isothiocyanate, reference compound] | negative results |  |  |
| NCCCC[C@H](N)C(=O)N[C@@H](Cc1ccccc1)C(N)=O [G0-dendron] | successful cellular uptake | < 10 | 38.7 |
| H-KLRKLRKRLLR-NH2 (C-terminus assumed) [AEP-dendron] |  | < 10 | 90.7 |
